Like-named read-outs stand apart in the source and are kept apart here.
System: HIV-1 LAI envelope single-round infectious reporter virus
Assay: Single-round infectious luciferase reporter virus infection of MT2 cells (HIV-1 LAI envelope)
Assay type: cell-based
Settings: Human immunodeficiency virus 1, MT2, 72 h
Text: Human embryonic Kidney cell line, 293T (HEK 293T), was propagated in Dulbecco's Modified Eagle Medium (Invitrogen, Carlsbad, Calif.) containing 10% fetal Bovine serum (FBS, Sigma, St. Louis, Mo.). The human T-cell leukemia cell MT2 (AIDS Research and Reference Reagent Program, Cat. 237) was propagated in RPMI 1640 (Invitrogen, Carlsbad, Calif.) containing 10% fetal bovine serum (FBS, Hyclone, Logan, Utah)
Single-round infectious reporter virus was produced by co-transfecting HEK 293T cells with plasmide expressing the HIV-1 LAI envelope along with a plasmid containing an HIV-1 LAI proviral cDNA with the envelope gene replaced by a firefly luciferase reporter gene (Chen et al, Ref 41). Transfections were performed using lipofectAMINE PLUS reagent as described by the manufacturer (Invitrogen, Carlsbad, Calif.).
• 1. MT2 cells were plated in black, 384 well plates at a cell density of 5×10^3 cells per well in 25 μl RPMI 1640 containing 10% FBS. • 2. Compound (diluted in dimethylsulfoxide and growth medium) was added to cells at 12.5 μl/well, so that the final assay concentration would be ≦50 nM. • 3. 12.5 μl of single-round infectious reporter virus in Dulbecco's Modified Eagle Medium was added to the plated cells and compound at an approximate multiplicity of infection (MOI) of 0.01, resulting in a final volume of 50 μl per well. • 4. Virus-infected cells were incubated at 37 degrees Celsius, in a CO2 incubator, and harvested 72 h after infection. • 5. Viral infection was monitored by measuring luciferase expression in the infected cells using a luciferase reporter gene assay kit (Steady-Glo, Promega, Madison, Wis.) as described by the manufacturer. Luciferase activity was then quantified by measuring luminescence using an EnVision Multilabel Plate Readers (PerkinElmer, Waltham, Mass.). • 6. The percent inhibition for each compound was calculated by quantifying the level of luciferase expression in cells infected in the presence of each compound as a percentage of that observed for cells infected in the absence of compound and subtracting such a determined value from 100. • 7. An EC50 provides a method for comparing the antiviral potency of the compounds of this disclosure. The effective concentration for fifty percent inhibition (EC50) was calculated with the Microsoft Excel Xlfit curve fitting software. For each compound, curves were generated from percent inhibition calculated at 10 different concentrations by using a four parameter logistic model (model 205). Table 1 is the key for the data in Table 2.

[1] = read-out: EC50 Group from Table 1

| Structure (SMILES) | EC50 [1] [µM] | EC50 [µM] |
| --- | --- | --- |
| O=C(C(=O)N1CC2CN(C(=O)c3ccccc3)CC2C1)c1c[nH]c2c(-n3ccnn3)ncc(F)c12 (stereo not shown) [Compound 2005] | < 0.5 |  |
| COc1cnc(-n2cnc(C)n2)c2[nH]cc(C(=O)C(=O)N3CC4CN(C(=O)N(C)C)CC4C3)c12 (stereo not shown) [Compound 3002, 5-(2-(4-methoxy-7-(3-methyl-1H-1,2,4-triazol-1-yl)-1H-pyrrolo[2,3-c]pyridin-3-yl)-2-oxoacetyl)-N,N-dimethylhexahydropyrrolo[3,4-c]pyrrole-2(1H)-carboxamide] | < 0.5 |  |
| O=C(C(=O)N1CC2CN(Cc3ccccc3)CC2C1)c1c[nH]c2c(-n3ccnn3)ncc(F)c12 (stereo not shown) [Compound 2003] | > 0.5 |  |
| O=C(C(=O)N1CC2CN(c3nnnn3-c3ccccc3)CC2C1)c1c[nH]c2c(-n3ccnn3)ncc(F)c12 (stereo not shown) [Compound 1001, 1-(4-fluoro-7-(1H-1,2,3-triazol-1-yl)-1H-pyrrolo[2,3-c]pyridin-3-yl)-2-(5-(1-phenyl-1H-tetrazol-5-yl)hexahydropyrrolo[3,4-c]pyrrol-2(1H)-yl)ethane-1,2-dione] | < 0.5 |  |
| COc1cnc(-n2cnc(C)n2)c2[nH]cc(C(=O)C(=O)N3CC4CN(c5nnnn5-c5ccccc5)CC4C3)c12 (stereo not shown) [Compound 1002, 1-(4-methoxy-7-(3-methyl-1H-1,2,4-triazol-1-yl)-1H-pyrrolo[2,3-c]pyridin-3-yl)-2-(5-(1-phenyl-1H-tetrazol-5-yl)hexahydropyrrolo[3,4-c]pyrrol-2(1H)-yl)ethane-1,2-dione] | < 0.5 | 0.00141 |
| COc1cnc(-n2cnc(C)n2)c2[nH]cc(C(=O)C(=O)N3CC4CN(C(=O)c5ccccc5)CC4C3)c12 (stereo not shown) [Compound 2006] | < 0.5 | 0.00068 |
| COc1cnc(-n2cnc(C)n2)c2[nH]cc(C(=O)C(=O)N3CC4CN(Cc5ccccc5)CC4C3)c12 (stereo not shown) [Compound 2001] | < 0.5 |  |
| CN(C)C(=O)N1CC2CN(C(=O)C(=O)c3c[nH]c4c(-n5ccnn5)ncc(F)c34)CC2C1 (stereo not shown) [Compound 3001, 5-(2-(4-fluoro-7-(1H-1,2,3-triazol-1-yl)-1H-pyrrolo[2,3-c]pyridin-3-yl)-2-oxoacetyl)-N,N-dimethylhexahydropyrrolo[3,4-c]pyrrole-2(1H)-carboxamide] | < 0.5 |  |

Reference: patent US8835454B2, “Fused bicyclic diamine derivatives as HIV attachment inhibitors” (priority 2011, dated 2014)
